Measured values from patent US4481218A, “3-(2,2,2-Trimethylhydrazinium)propionate and method for the preparation and use thereof” (Institut Organicheskogo Sinteza Akademii Nauk Latviiskoi SSR, priority 1978, dated 1984).

Legend:
chicks [1] = assay: growth stimulant efficiency in chicks, 0.04% in feedstuff (Example 7, Table 2); type: in vivo; settings: 0.04% by weight in feedstuff
Experimental: (§1) The growth stimulator for animals and fowl containing 3-(2,2,2-trimethylhydrazinium)-propionate as the active principle is tested for efficiency. The test is conducted in chicks of 6 days of age, the test group consisting of 50 chicks and the control group--50 chicks. The test chicks were fed with a feedstuff containing 0.02% by weight of the active principle, the control group--only basic diet without the addition of the active principle. The chicks' diet contained, % by weight: barley--20, wheat--6, corn--40, sunflower and soya-bean grist--19, fish flour--7, meat-bone flour--3, yeast--5. One kilogram of the feedstuff contained 1.25 feeding unit, 3,135 kCal of exchange energy, 21% of a crude protein, 4% of crude cellulose and 197 g of digestable protein.
The experiment for testing efficiency of the growth stimulant for animals and fowl according to the present invention was carried out following the procedure similar to that described in the foregoing Example 6; added to the feedstuff was 0.04% by weight of the active principle based on the feedstuff weight. By the end of the 34-days' period the chicks of the test groups fed with the growth stimulant were 12.9% heavier.

solubility = type: physicochemical
Experimental: The compound according to the present invention, viz. 3-(2,2,2-trimethylhydrazinium)propionate comprises a colourless crystalline powder with a melting point of 254°-256° C. (from ethanol). […] (p.p.m.): 6.70 singlet, (CH3)3 N; 6.89, triplet, CH2,

pubertal rats = assay: growth stimulator efficiency in pubertal rats (Example 11, Table 6); type: in vivo, rat
Experimental: (§2) The efficiency of the growth stimulator was studied on young rats. The experiment was carried out with nondescript young rats weighting about 75 g in groups of 30 animals in each. The growth stimulator was administered perorally to each rat as an aqueous solution at a rate of from 0.1 to 0.001% by weight of the consumed daily diet. The administration of the growth stimulator was effected every day during 10 days. The observation period was 20 days; the rats were weighed after every 4 days. […] On completion of the experiment the animals were killed and the parenchymatous organs and peripheral blood were analyzed.
The growth stimulator efficiency was studied on pubertal rats. The experiment conditions were similar to those described in the foregoing Example 10.

animals and fowl = assay: specific (growth-stimulating) activity on animals and fowl, general; type: in vivo
Excerpt: (§3) The study of specific activity of 3-(2,2,2-trimethylhydrazinium)-propionatewas effected on various animals: mice, rats, pigs, cattle, chickens, goslings, turkey poults and ducklings. The growth-controlling activity of this compound relative to plats has been studied on barley, oats, rye and wheat.

young rats = assay: growth stimulator efficiency in young rats (Example 10, Table 5); type: in vivo, rat
Experimental: as §2

[2] = tested on: barley, oats, rye and wheat; assay: growth-controlling activity on plants; type: in vivo
Excerpt: as §3

chicks [3] = assay: growth stimulator efficiency in chicks, 0.02% in feedstuff (Example 6, Table 1); type: in vivo; settings: 0.02% by weight in feedstuff
Experimental: as §1

[4] = tested on: microbless pig mini-sucklings; assay: growth stimulant efficiency in microbless pig mini-sucklings (Example 8, Table 3); type: in vivo
Experimental: The efficiency of the growth stimulant for animals according to the present invention was tested in feeding of microbless animals. The test was carried out in microbless pig mini-sucklings grown without under sterile conditions in a comparison with pig mini sucklings grown keeping to the requirements of sterile conditions, since birth and to the age of two-months, a feedstuff containing 0.04% by weight of the active principle. Their growth was compared to that of 10 sucklings grown without keeping to sterility conditions and the development of 7 microbless pig sucklings. By the end of the experiment the test pig sucklings were 17.2% heavier than the microbless pig sucklings given no growth stimulant and 18.2% heavier than the sucklings grown under nonsterile conditions and given no growth stimulator.

in vivo = assay: in vivo; set-up: species or system white mice; settings: mouse, ip
Experimental: (§4) The toxicological study of 3-(2,2,2-trimethylhydrazinium)-propionate on white mice weighing 20-25 g has shown that with a single peroral administration to the animals in doses of up to 23,000 mg/kg the preparation causes no death of the animals.

white mice = assay: in vivo; settings: mouse
Experimental: as §4

white-breed young pigs = assay: growth stimulator efficiency in white-breed young pigs (Example 9, Table 4); type: in vivo, pig; settings: 0.02% by weight, 122 days
Experimental: The efficiency of the growth stimulator was tested on white-breed young pigs deprived of mother's milk with the body weight of about 20 kg, […], in each group.
The young pigs were in the same pig sty and serviced by one operator; all of the animals were on the same diet consisting of barley flour, green mass of a vetch-oat mixture and whey. The animals were fed two times a day with free watering. To the feedstuff of the test group there were added 200 mg of 3-(2,2,2-trimethylhydrazinium)propionate per 1 kg of dry substance of the feed-stuff (0.02% by weight of the active principle).

[5] = 0.001% of the active principle, day 4
[6] = 0.001% of the active principle, day 8
[7] = 0.001% of the active principle, day 12
[8] = 0.001% of the active principle, day 16
[9] = 0.001% of the active principle, day 20
[10] = 0.01% of the active principle, day 4
[11] = 0.01% of the active principle, day 8
[12] = 0.01% of the active principle, day 12
[13] = 0.01% of the active principle, day 16
[14] = 0.01% of the active principle, day 20

## C[N+](C)(C)NCCC(=O)[O-] [3-(2,2,2-trimethylhydrazinium)-propionate]
Chicks [1]
  chicks heavier by the end of the 34-days' period: 12.9%
Chicks [1]; control 261.9
  Average body weight of chicks, aged 30 days: 268.9 g
Chicks [1]; control 313 ± 3
  Average mass gain for the test time: 353 ± 8 g
Chicks [1]; control 364.3
  Average body weight of chicks, aged 40 days: 404.8 g
Chicks [1]; test beginning
  Average body weight of chicks, aged 6 days: 51.0 g
Chicks [1]; mass gain, control = 100.0
  Percentage to the control: 112.9%
solubility; ethanol and methanol
  solubility in ethanol and methanol: well soluble
solubility; water
  solubility in water: very readily soluble
Pubertal rats; [5]
  Weight on the weighing day: 175 g
Pubertal rats; [6]
  Weight on the weighing day: 189 g
Pubertal rats; [7]
  Weight on the weighing day: 210 g
Pubertal rats; [8]
  Weight on the weighing day: 231 g
Pubertal rats; [9]
  Weight on the weighing day: 248 g
Pubertal rats; [10]
  Weight on the weighing day: 169 g
Pubertal rats; [11]
  Weight on the weighing day: 175 g
Pubertal rats; [12]
  Weight on the weighing day: 189 g
Pubertal rats; [13]
  Weight on the weighing day: 215 g
Pubertal rats; [14]
  Weight on the weighing day: 229 g
Pubertal rats; 0.1% of the principle, day 4
  Weight on the weighing day: 155 g
Pubertal rats; 0.1% of the principle, day 8
  Weight on the weighing day: 161 g
Pubertal rats; 0.1% of the principle, day 12
  Weight on the weighing day: 174 g
Pubertal rats; 0.1% of the principle, day 16
  Weight on the weighing day: 187 g
Pubertal rats; 0.1% of the principle, day 20
  Weight on the weighing day: 203 g
Pubertal rats; active principle 0.001% by weight of the dry feedstuff
  body weight gain: 13.5%
Pubertal rats; active principle 0.101% (so in the source) by weight of the dry feedstuff
  body weight gain: 9%
Animals and fowl; animals and fowl
  growth-stimulating activity: clearly pronounced growth-stimulating activity
Animals and fowl; depending on the variety of animals and fowl
  daily weight gain: 8-24%
Animals and fowl; test animals and fowl
  metabolism: metabolism is improved
  reduction of the rate of feedstock consumption per weight gain unit: 7-15%
Young rats; 0.001% by weight of the daily diet
  increase of body weight gain of the rats: 12.5%
Young rats; [5]
  Weight on the day of weighing: 76 g
Young rats; [6]
  Weight on the day of weighing: 99 g
Young rats; [7]
  Weight on the day of weighing: 131 g
Young rats; [8]
  Weight on the day of weighing: 154 g
Young rats; [9]
  Weight on the day of weighing: 164 g
Young rats; 0.01% by weight of the daily diet
  increase of body weight gain of the rats: 12%
Young rats; [10]
  Weight on the day of weighing: 79 g
Young rats; [11]
  Weight on the day of weighing: 93 g
Young rats; [12]
  Weight on the day of weighing: 125 g
Young rats; [13]
  Weight on the day of weighing: 139 g
Young rats; [14]
  Weight on the day of weighing: 158 g
Young rats; 0.1% by weight of the daily diet
  effect on weight gain of the rats: substantially did not affect the weight gain
Young rats; 0.1% of the active principle, day 4
  Weight on the day of weighing: 76 g
Young rats; 0.1% of the active principle, day 8
  Weight on the day of weighing: 95 g
Young rats; 0.1% of the active principle, day 12
  Weight on the day of weighing: 98 g
Young rats; 0.1% of the active principle, day 16
  Weight on the day of weighing: 107 g
Young rats; 0.1% of the active principle, day 20
  Weight on the day of weighing: 129 g
Young rats; 0.1 to 0.001% by weight of the daily diet, perorally 10 days
  pathology of parenchymatous organs and peripheral blood: No pathology was observed
[2]; grain crops
  specific gravity of grain crops: increased
  yield gain of crops: 15-30%
[2]; oats, barley, rye, wheat
  increase in the stem diameter of crops: 15%
  stability against lodging: improving their stability against lodging
[2]; plants
  growth-controlling effect: clearly pronounced growth-controlling effect
Chicks [3]
  Average body weight of chicks, aged 30 days: 289.4 g
Chicks [3]; 34 days
  weight gain compared to the control chicks: 7.7%
Chicks [3]; 34 days, control 364.5 ± 10.1
  Average gain for the test time: 392.7
Chicks [3]; end of 34 days, control 412.2 g
  Average body weight of chicks, aged 40 days: 440.5 g
Chicks [3]; test beginning (6 days of age)
  Average body weight of chicks, aged 6 days: 47.8 g
Chicks [3]; average gain, control = 100.0
  Percentage to the control: 107.7%
[4]; 0.04% by weight, 2 months' age
  heavier than the microbless pig sucklings given no growth stimulant: 17.2%
  heavier than the sucklings grown under nonsterile conditions and given no growth stimulator: 18.2%
[4]; microbless mini-pigs, 0.04% by weight of feedstuff, untreated microbless 3,271 ± 385, ordinary 3,244 ± 335
  Animal weight at the 2-months' age: 3,833 ± 348 g
In vivo
  NOAEL: ≥ 10000 mg/kg
White mice
  single peroral dose causing no death of the animals: up to 23,000 mg/kg
white-breed young pigs
  Average daily weight gain, percent of the control: 112.4% of the control
  Feedstuff consumption per 1 kg of the body weight gain, % of control: 92.9 % of control
  weight gain higher as compared to the control group animals: 7.4 kg
white-breed young pigs; control 4.38
  Feedstuff consumption per 1 kg of the body weight gain: 4.07 feeding units
white-breed young pigs; control 59.0 ± 2.1
  Body weight gain during the test period: 66.4 ± 3.6 kg
white-breed young pigs; control 74.0 ± 3.2
  Average body weight by the test end: 88.2 ± 4.0 kg
white-breed young pigs; control 285.5
  Feedstuff consumption during the test period: 270.7 feeding units
white-breed young pigs; control 484 ± 17
  Average daily weight gain: 544 ± 32 g
white-breed young pigs; vs control
  reduction of consumption of feeding units per kilogram of the weight gain: 7.1%
